From article PMC8820617, “Machine learning-driven identification of drugs inhibiting cytochrome P450 2C9” (PLoS Computational Biology, 2022)
“Also recorded” adds a separate entry of the source. Where two headings read alike, the source gives them in different places.

Experiments:
[1] = system: HepG2 cells expressing CYP2C9; test: Cytotoxicity (MTS assay) in HepG2 cells expressing CYP2C9; settings: for min [c]: minimal concentration that increases the cytotoxicity: HepG2 cells expressing CYP2C9; for min [c]: minimal concentration that increases the cytotoxicity / Increased cytotoxicity in HepG2 cells expressing CYP2C9 (yes/no): threshold cell viability 80%; for Increased cytotoxicity in HepG2 cells expressing CYP2C9 (yes/no) / % living HepG2 cells expressing CYP2C9 after incubation with the min [c]: MTS assay; for Increased cytotoxicity in HepG2 cells expressing CYP2C9 (yes/no): compared with wild-type HepG2 cells; for % living HepG2 cells expressing CYP2C9 after incubation with the min [c]: at min [c] of the compound
[2] = biological target: T1, CYP2C9 (Homo sapiens, UniProt P11712); test: Inhibition of CYP2C9 activity in HepG2 cells expressing CYP2C9 (P450-Glo CYP2C9 assay with Luciferin-H); settings: for Inhibition of CYP2C9 activity in HepG2 cells (yes/no) / Dose-dependent inhibition (yes/no): HepG2 cells expressing CYP2C9; for Inhibition of CYP2C9 activity in HepG2 cells (yes/no): concentration range with cell viability > 80%; for Dose-dependent inhibition (yes/no): five-step dilution series 0.5 to 50 μM; for Any effect (inhibition of CYP2C9 activity and/or cytotoxicity on HepG2 cells expressing CYP2C9): over the range of concentrations used
[3] = biological target: T2, CYP2C9 supersomes (Homo sapiens, UniProt P11712); test: Metabolism assays with recombinant CYP2C9 supersomes (UPLC/HR-MS); settings: incubation with recombinant CYP2C9 supersomes
[4] = biological target: T2, CYP2C9 supersomes; test: Inhibition of CYP2C9 on recombinant supersomes (diclofenac 4-hydroxylation, LC/MS-MS); settings: for IC50: IC50 values determined with CYP2C9 supersomes, substrate diclofenac 5 μM, recombinant supersomes
Description: (§1) A CYP2C9-specific substrate (diclofenac) and recombinant supersomes were incubated with and without the study compounds (according to the protocol optimized by the Service Provider Admescope (Finland)). The concentrations of the studied compounds were 0.3, 1, 3, 10, 20, 30, 50, 60, 70, 90 and 100 μM. […] The enzymatic reactions were started after 6 min of preincubation by adding NADPH and terminated after 15 min by adding ice-cold acetonitrile. The supernatant was collected and centrifuged for analyses. The samples were analyzed by LC/MS-MS to determine the level of metabolites in the absence and presence of a candidate molecule. Spiked standard samples were not used, but quantification based on relative peak areas was performed (solvent control = 100%). The disappearance was evaluated as relative LC/MS peak areas, and the 0-min time points were marked as 100%. The disappearance rate was used to calculate the half-life and in vitro clearance. For details of the method, see S2 Text.
(§2) Details of analytical method for inhibition tests using CYP2C9 supersomes and calculation of IC50
(§3) Test compound concentrations: Test compound Test concentrations (µM)
(§4) Diclofenac at 5 µM for CYP2C9
(§5) Substrates and concentrations:
(§6) Instrumentation: Waters Acquity UPLC + Thermo TSQ Endura triple quadrupole MS
(§7) The IC50 value for the test compound was determined by fitting following equation to the data
(§8) A% = percentual activity remaining
(§9) Top = the upper plateau of percentual activity (constrained to 100)
(§10) Bottom = the lower plateau of percentual activity (constrained to 0)
(§11) [I] = inhibitor concentration
(§12) (1 picture or pasted object on this page, not shown here)

[5] = system: HepG2 cells expressing CYP2C9; settings: human
[6] = biological target: T1, CYP2C9
[7] = biological target: T1, CYP2C9; test: Inhibition of CYP2C9 on recombinant supersomes (diclofenac 4-hydroxylation, LC/MS-MS); settings: human, recombinant CYP2C9 supersomes, probe diclofenac 5 μM (4-hydroxylation), IC50 values determined with CYP2C9 supersomes, substrate diclofenac 5 μM; recombinant supersomes
Description: as §1, §2, §3, §4, §5, §6, §7, §8, §9, §10, §11, §12

T2 sequence (P11712 whole entry): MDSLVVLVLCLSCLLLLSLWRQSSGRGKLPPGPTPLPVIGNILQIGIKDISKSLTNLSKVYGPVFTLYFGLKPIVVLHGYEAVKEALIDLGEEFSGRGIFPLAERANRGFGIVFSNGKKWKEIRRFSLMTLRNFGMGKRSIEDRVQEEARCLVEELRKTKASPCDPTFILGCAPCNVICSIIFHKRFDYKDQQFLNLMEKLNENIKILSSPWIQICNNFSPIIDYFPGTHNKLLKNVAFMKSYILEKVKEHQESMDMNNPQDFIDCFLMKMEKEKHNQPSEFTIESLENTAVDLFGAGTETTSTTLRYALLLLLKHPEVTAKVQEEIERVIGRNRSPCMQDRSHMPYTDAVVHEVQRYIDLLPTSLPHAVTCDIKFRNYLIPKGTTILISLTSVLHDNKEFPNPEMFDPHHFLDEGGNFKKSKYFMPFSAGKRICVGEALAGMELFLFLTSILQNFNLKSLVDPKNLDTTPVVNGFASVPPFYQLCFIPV
T1 sequence (P11712 whole entry): as above

Compound	Dose-dependent inhibition (yes/no) [2]	IC50 [4] [µM]	min [c]: minimal concentration that increases the cytotoxicity [1] [µM]	Increased cytotoxicity in HepG2 cells expressing CYP2C9 (yes/no) [1]	% living HepG2 cells expressing CYP2C9 after incubation with the min [c] [1] [%]	Inhibition of CYP2C9 activity in HepG2 cells (yes/no) [2]	further results
CCN1CCN(Cc2ccc(Nc3ncc(F)c(-c4cc(F)c5nc(C)n(C(C)C)c5c4)n3)nc2)CC1 [Abemaciclib]	no	> 100	5	yes	30	no	Metabolism by CYP2C9 (in words) [3]: metabolized by CYP2C9; Inhibition effect on CYP2C9 (in words) ([4]; CYP2C9 supersomes): no direct inhibition; also recorded: No any inhibition effect
CC(C)Oc1ccc(S(=O)(=O)N2CCN(c3ccc(-c4ncco4)c(OCC(=O)O)c3)CC2)cc1 [Asapiprant]	yes	46	–	no	–	yes	–
CC(=O)N1CCN(CCOc2ccc(C3CCN(C4=Nn5c(nnc5C(F)(F)F)CC4)CC3)cc2)CC1 [Azd3514]	no	–	20	yes	60	no	–
Cc1nc(Nc2ncc(C(=O)Nc3c(C)cccc3Cl)s2)cc(N2CCN(CCO)CC2)n1 [Dasatinib]	yes	–	20	yes	45	yes	–
COc1ccc(OC(=O)N(CC(=O)O)Cc2ccc(OCCc3nc(-c4ccccc4)oc3C)cc2)cc1 [Muraglitazar]	no	–	–	no	–	no	Any effect (inhibition of CYP2C9 activity and/or cytotoxicity on HepG2 cells expressing CYP2C9) [2]: did not show any effect
Cc1ccccc1-n1c(/C=C/c2ccccn2)nc2ccccc2c1=O [Piriqualone]	yes	10.9	75	yes	0	yes	–
O=C(O[C@H]1CN2CCC1CC2)N(Cc1cc(F)c(F)c(F)c1)c1cccc(F)c1 [Tarafenacin]	–	> 100	–	–	–	–	% living HepG2 cells expressing CYP2C9 after incubation with the min [c] [5]: 0%; min [c]: minimal concentration that increases the cytotoxicity [5]: 50 µM; Dose-dependent inhibition (yes/no) [6]: no; Inhibition of CYP2C9 activity in HepG2 cells (yes/no) [6]: yes; Inhibition effect on CYP2C9 (in words) ([4]; recombinant enzyme): weak inhibition effect

Now from value to compound, other results behind:

Dose-dependent inhibition (yes/no) [2]	IC50 [4] [µM]	Compound	min [c]: minimal concentration that increases the cytotoxicity [1] [µM]	Increased cytotoxicity in HepG2 cells expressing CYP2C9 (yes/no) [1]	% living HepG2 cells expressing CYP2C9 after incubation with the min [c] [1] [%]	Inhibition of CYP2C9 activity in HepG2 cells (yes/no) [2]	further results
yes	17.7	O=c1[nH]c2ccccc2c(=O)n1CCCN1CCN(c2cccc(Cl)c2)CC1 [Cloperidone]	100	yes	40	yes	Cytotoxicity after incubation with HepG2 cells expressing CYP2C9 (in words) [1]: increased cytotoxicity; Metabolism by CYP2C9 (in words) [3]: metabolized by CYP2C9; Inhibition effect on CYP2C9 (in words) ([4]; CYP2C9 supersomes): strongly inhibit
yes	52	C[C@H](Nc1ncnc2[nH]cnc12)c1cc2cccc(Cl)c2c(=O)n1-c1ccccc1 [Duvelisib]	–	no	–	yes	–
no	–	CN(c1nccc(=O)[nH]1)C1CCN(c2nc3ccccc3n2Cc2ccc(F)cc2)CC1 [Mizolastine]	50	yes	60	no	–
no	–	CN(c1ncccc1CNc1nc(Nc2ccc3c(c2)CC(=O)N3)ncc1C(F)(F)F)S(C)(=O)=O [Pf-562271]	10	yes	65	yes	–
yes	40	O=C1NCCN1CCN1CCC(c2cn(-c3ccc(F)cc3)c3ccc(Cl)cc23)CC1 [Sertindole]	10	yes	60	yes	–
no	–	CC(C)(C)C(=O)Oc1ccc(S(=O)(=O)Nc2ccccc2C(=O)NCC(=O)O)cc1 [Sivelestat]	–	no	–	no	Any effect (inhibition of CYP2C9 activity and/or cytotoxicity on HepG2 cells expressing CYP2C9) [2]: did not show any effect
yes	11.8	CCCSc1nc(N[C@@H]2C[C@H]2c2ccc(F)c(F)c2)c2nnn([C@@H]3C[C@H](OCCO)[C@@H](O)[C@H]3O)c2n1 [Ticagrelor]	–	no	–	yes	–
yes	< 18	Clc1ccc(Nc2nnc(Cc3ccncc3)c3ccccc23)cc1 [Vatalanib]	20	yes	50	yes	Metabolism by CYP2C9 (in words) [3]: metabolized by CYP2C9; IC50 at 15 min [7]: < 0.3 µM; Inhibition effect on CYP2C9 (in words) ([4]; CYP2C9 supersomes): strongly inhibit
yes	–	Bifeprofen	75	yes	50	yes	–
no	–	Ciltoprazine	75	yes	0	yes	–
